The test has as its system R223X stop codon in the mutated luciferase gene, ADXC8 luciferase reporter cell line. In words: cells. The format is cell-based. Conditions: ADXC8 cells, 24 hours; for Emax / EC (100% of 200 uM G418 response): 24 h; for Emax: read-out: Fold Over Control, maximum fold response relative to 200 μM G418; for EC (100% of 200 uM G418 response): read-out: pC100%, negative logarithm of the concentration giving the same response as 200 μM G418; for Fold Over Control: maximum fold response relative to 200 μM G418; for pC100%: negative logarithm of the concentration giving the same response as 200 μM G418.

Where only a bound is given, the exact number is not on record here.

For the molecule `Cc1cc(C)c2c(N)nc(NC3CC4(CCN(C(=O)OC(C)(C)C)CC4)C3)nc2n1` [Example 132], the Emax lay in the range of 0 to 100% and the EC (100% of 200 uM G418 response) was greater than 100 µM.
As to `CN1CCC(Nc2nc(N)c3c4c(cnc3n2)CCC4)CC1` [Example 274], the EC (100% of 200 uM G418 response) fell in the range of 1 to 10 µM.
Take `C=C(C)c1cnc2nc(NC3CCN(C)CC3)nc(N)c2c1` [Example 397]: the Emax lay in the range of 100 to 3000% and the EC (100% of 200 uM G418 response) was 1 to 10 µM.
As for `CN1CCC(Nc2nc(N)c3ccc(-c4ccccc4C(=O)N(C)C)nc3n2)CC1` [Example 75], the Emax fell in the range of 0 to 100% and the EC (100% of 200 uM G418 response) was greater than 100 µM.
On the same counts, the results for `Cc1cc(C)c2c(N)nc(NC3(CO)CCNCC3)nc2n1` [Example 207] are 0 to 100% and greater than 31.6 µM.
On the same counts, the results for `Cc1cc(C)c2c(N)nc(NC3CCNCC3)nc2n1` [Example 279] are 100 to 3000% and 1 to 10 µM.
On the same counts, the results for `Cc1cc(C)c2c(N)nc(NCCCNCC(F)(F)F)nc2n1` [Example 185] are 0 to 100% and greater than 31.6 µM.
For the molecule `CNc1cc(N[C@H]2CNC[C@H]2O)nc2nc3c(c(C)c12)CCC3` [Example 618], the EC (100% of 200 uM G418 response) lay within 1 to 10 µM.
Same read-out and setting: next, `CNc1nc(NC2CC[C@H]2N(C)C)nc2nc(C)cc(C)c12` (stereo partly drawn) [Example 412]: 1 to 10 µM.
Turning to `CC(=O)Nc1cccc(CN2CCC(Nc3nc(N)c4c(C)cc(C)nc4n3)CC2)c1` [Example 480], the Emax lay within 100 to 3000% and the EC (100% of 200 uM G418 response) was 10 to 100 µM.
For `CNc1nc(NC2C[C@@H]3CCC2N3)nc2nc(C)cc(C)c12` (stereo partly drawn) [Example 383], the EC (100% of 200 uM G418 response) lay in the range of 1 to 10 µM.
Consider `Cc1cc(C)c2c(N)nc(NC3CC(C)(C)N(C)C(C)(C)C3)nc2n1` [Example 171], for which the Emax is 100 to 3000% and the EC (100% of 200 uM G418 response) lay within 10 to 100 µM.
The like results for `CN1CCC(Nc2cc(N)c3cccnc3n2)CC1` [Example 43, N^2-(1-methylpiperidin-4-yl)-1,8-naphthyridine-2,4-diamine] were, in that order, 100 to 3000% and 10 to 100 µM.
The like results for `CNc1ccc2c(N)nc(NC3CCN(C)CC3)nc2n1` [Example 34, N^7-methyl-N2-(1-methylpiperidin-4-yl)pyrido[2,3-d]pyrimidine-2,4,7-triamine] were, in that order, 100 to 3000% and 10 to 100 µM.
As to `CNc1nc(N[C@H]2CN(C)C[C@H]2F)nc2nc(C)c(Cl)c(C)c12` [Example 614], the EC (100% of 200 uM G418 response) was 1 to 10 µM.
As to `Cc1cc(C)c2c(N)nc(NCCCN3CCS(=O)(=O)CC3)nc2n1` [Example 8, 4-(3-((4-amino-5,7-dimethylpyrido[2,3-d]pyrimidin-2-yl)amino)propyl)thiomorpholine 1,1-dioxide], the Emax was 0 to 100% and the EC (100% of 200 uM G418 response) is greater than 100 µM.
Take `CNc1nc(NC2CNCC2(F)F)nc2nc(C)cc(C)c12` (single isomer, unassigned) [Example 438]: the “Fold Over Control” value was “# (Fold over Ctrl ≥ 0 ≤ 1)” and the pC100% result was “* (pC100 ≤ 4.5)”.
With `CNc1nc(NC2C3CCC2CN(C(C)C)C3)nc2nc(C)cc(C)c12` (single isomer, unassigned) [Example 435], the Emax fell in the range of 100 to 3000% and the pC100% entry is “++ (pC100% > 5.0 ≤ 6.0)”.
On to `CNc1nc(N[C@@H]2C[C@@H]3CC[C@H]2N3C)nc2nc(C)cc(C)c12` [Example 368], for which the Emax was 100 to 3000% and the EC (100% of 200 uM G418 response) was in the range of 1 to 10 µM.
On to `CNc1nc(N[C@H]2CN(C)C[C@H]2F)nc2nc(C)c(Br)c(C)c12` [Example 613], for which the EC (100% of 200 uM G418 response) lay within 1 to 10 µM.
For the molecule `Cc1cc(C)c2c(N)nc(NC3CCN(Cc4ccc(C#N)cc4C(F)F)CC3)nc2n1` [Example 508, 4-((4-((4-amino-5,7-dimethylpyrido[2,3-d]pyrimidin-2-yl)amino)piperidin-1-yl)methyl)-3-(difluoromethyl)benzonitrile], the Emax was 100 to 3000% and the EC (100% of 200 uM G418 response) lay within 1 to 10 µM.
The like results for `Cc1cc(C)c2c(N)nc(N[C@@H]3CCNC[C@H]3F)nc2n1` [Example 585] were, in that order, 100 to 3000% and 1 to 10 µM.
For the molecule `CNc1nc(N[C@H]2CN[C@H](CO)C2)nc2nc(C)cc(C)c12` [Example 415], the EC (100% of 200 uM G418 response) fell in the range of 1 to 10 µM.
For `Cc1cc(C)c2c(N)nc(NCC3CCN(C(=O)OC(C)(C)C)CC3)nc2n1` [Example 133], the Emax is 0 to 100% and the EC (100% of 200 uM G418 response) was greater than 100 µM.
In the case of `CCN1C[C@@H](F)[C@@H](Nc2nc(NC)c3c(C)cc(C)nc3n2)C1` [Example 628], the EC (100% of 200 uM G418 response) is 1 to 10 µM.
Regarding `C=C(C)c1ccc2c(N)nc(NC3CCN(C)CC3)nc2n1` [Example 238, N^2-(1-methylpiperidin-4-yl)-7-(prop-1-en-2-yl) pyrido[2,3-d]pyrimidine-2,4-diamine], the Emax lay in the range of 0 to 100% and the EC (100% of 200 uM G418 response) is greater than 31.6 µM.
The like results for `COCCN1CC[C@@H](Nc2nc(N)c3c(C)cc(C)nc3n2)C1` [Example 223, (R)—N^2-(1-(2-methoxyethyl)pyrrolidin-3-yl)-5,7-dimethylpyrido[2,3-d]pyrimidine-2,4-diamine] were, in that order, 100 to 3000% and 10 to 100 µM.
The like results for `Cc1nc2nc(NC3CCN(Cc4ccccc4)CC3)nc(N)c2c2c1CCC2` [Example 306] were, in that order, 100 to 3000% and 0.1 to 1 µM.
With `Cc1cc(C)c2c(N)nc(NC3CCN(Cc4cccnc4)CC3)nc2n1` [Example 504], the Emax lay in the range of 100 to 3000% and the EC (100% of 200 uM G418 response) lay within 1 to 10 µM.
`CNc1nc(N[C@@H]2CN(C)C[C@@H]2C)nc2nc(C)cc(C)c12` [Example 377]: the Emax lay within 100 to 3000% and the EC (100% of 200 uM G418 response) fell in the range of 1 to 10 µM.
The like results for `CN1CCC(Nc2nc(N)c3ccc(-c4ncco4)nc3n2)CC1` [Example 119, N^2-(1-methylpiperidin-4-yl)-7-(oxazol-2-yl)pyrido[2,3-d]pyrimidine-2,4-diamine] were, in that order, 100 to 3000% and 10 to 100 µM.
`Cc1cc(C)c2c(N)nc(N[C@H]3CCCN(Cc4ccccc4)C3)nc2n1` [Example 215]: the Emax is 100 to 3000% and the EC (100% of 200 uM G418 response) fell in the range of 1 to 10 µM.
The like results for `Cc1nc2nc(NC3CCN(Cc4ccc(C#N)cc4F)CC3)nc(N)c2c2c1CCC2` [Example 527] were, in that order, 100 to 3000% and 0.1 to 1 µM.
As to `CN1CCC(Nc2nc(N)c3cc(-c4cnn(C)c4)cnc3n2)CC1` [Example 679], the Emax is 0 to 100% and the EC (100% of 200 uM G418 response) was greater than 100 µM.
In the case of `CNc1nc(NC23CCCN(CC2)C3)nc2nc(C)cc(C)c12` (stereo not drawn) [Example 416], the Emax lay in the range of 0 to 100% and the EC (100% of 200 uM G418 response) is greater than 31.6 µM.
With `Cc1cc(C)c2c(NC3CCC3)nc(N[C@@H]3CCNC3)nc2n1` [Example 333], the Emax was 0 to 100% and the EC (100% of 200 uM G418 response) was greater than 31.6 µM.
The like results for `Cc1nc2nc(NC3CCN(C)CC3)nc(N)c2c(-c2ccccc2)c1Cl` [Example 271] were, in that order, 0 to 100% and greater than 31.6 µM.
For the molecule `CN1CCC(Nc2nc(N)c3ccc(-c4ccc(F)c(F)c4)nc3n2)CC1` [Example 108], the EC (100% of 200 uM G418 response) fell in the range of 1 to 10 µM.
In the case of `Cc1cc(C)c2c(N)nc(NC3CNC3)nc2n1` [Example 214], the Emax was in the range of 0 to 100% and the EC (100% of 200 uM G418 response) is greater than 31.6 µM.
On the same counts, the results for `CNc1nc(NC2CN3CCC2C3)nc2nc(C)cc(C)c12` (stereo not drawn) [Example 449] are 0 to 100% and greater than 31.6 µM.
On the same counts, the results for `Cc1c2c(nc3nc(NC4CCN(Cc5cccc(C(=O)O)c5)CC4)nc(N)c13)CCC2` [Example 674] are 0 to 100% and greater than 31.6 µM.
On the same counts, the results for `CNCCNc1nc(NC2CCN(C)CC2)nc2nc(C)cc(C)c12` [Example 330] are 0 to 100% and greater than 31.6 µM.
Turning to `CC#Cc1cnc2nc(NC3CCN(C)CC3)nc(N)c2c1` [Example 42, N^2-(1-methylpiperidin-4-yl)-6-(prop-1-yn-1-yl)pyrido[2,3-d]pyrimidine-2,4-diamine], the Emax was 0 to 100% and the EC (100% of 200 uM G418 response) is greater than 100 µM.
Regarding `CN1CCC(Nc2nc(N)c3cc(CO)cnc3n2)CC1` [Example 123, {4-amino-2-[(1-methylpiperidin-4-yl)amino]pyrido[2,3-d]pyrimidin-6-yl}methanol], the Emax lay within 0 to 100% and the EC (100% of 200 uM G418 response) is greater than 100 µM.
On the same counts, the results for `Cc1cc(C)c2c(NCCC(=O)N(C)C)nc(NC3CCN(C)CC3)nc2n1` [Example 354] are 0 to 100% and greater than 31.6 µM.
The like results for `COCc1cccc(CN2CCC(Nc3nc(N)c4c(C)cc(C)nc4n3)CC2)c1` [Example 464] were, in that order, 100 to 3000% and 10 to 100 µM.
Regarding `CNc1nc(NC2CNCC2C#N)nc2nc(C)cc(C)c12` (single isomer, unassigned) [Example 450], the “Fold Over Control” value is on record as “## (Fold over Ctrl > 1 ≤ 30)” and the pC100% entry is given as “++ (pC100% > 5.0 ≤ 6.0)”.
Consider `[2H]C([2H])(c1ccc(C#N)cc1)N1CCC(Nc2nc(N)c3c(C)cc(C)nc3n2)CC1` [Example 507, 4-((4-((4-amino-5,7-dimethylpyrido[2,3-d]pyrimidin-2-yl)amino)piperidin-1-yl)methyl-d2)benzonitrile], for which the Emax lay in the range of 100 to 3000% and the EC (100% of 200 uM G418 response) lay in the range of 0.1 to 1 µM.
Take `Nc1nc(NCCCN2CCOCC2)nc2nc(-c3ccccc3)c3c(c12)CCC3` [Example 129, N^3-(3-morpholinopropyl)-6-phenyl-8,9-dihydro-7H-cyclopenta[4,5]pyrido[2,3-d]pyrimidine-1,3-diamine]: the EC (100% of 200 uM G418 response) is 1 to 10 µM.
`Cc1c2c(nc3nc(NC4CCN(Cc5ccc(S(N)(=O)=O)cc5)CC4)nc(N)c13)CCC2` [Example 667]: the Emax fell in the range of 100 to 3000% and the EC (100% of 200 uM G418 response) lay in the range of 1 to 10 µM.

Values taken from patent US20260234144A1 (TAY THERAPEUTICS LIMITED, priority 2023, published 2026).
